In paper PMC6207720, “Identification and antitumor activity of a novel inhibitor of the NIMA-related kinase NEK6” (Scientific Reports, 2018):

Tests used:
PEO1 (ovary) = experiment: Cell-based cytotoxicity assay (ATPlite), PEO1; design: species or system human; conditions: Homo sapiens; PEO1, 72 h, ATPlite; NA = not active (IC50 greater than 100 µM); read-out: IC50 Values (µM ± SEM)
Excerpt: (§1) The following human carcinoma cell lines were used for the study: MDA-MB-231 and MCF-7 (breast cancer; ATCC, Sesto San Giovanni, MI), PEO1 and COV318 (ovarian cancer; ECACC, Salisbury, UK and ATCC), HCT-15 and SW948 (colon cancer; Public Health England, Salisbury, UK and ATCC), NCI-H1975 and NCI-H1299, (lung cancer; ATCC). Cells were routinely tested free of mycoplasma (MycoAlert mycoplasma detection kit, LONZA, Rockland, ME, USA) and validated by STR (Short Tandem Repeat) DNA profiling (BMR Genomics srl, PD). Cells were grown following supplier indication, in a fully humidified atmosphere of 5% CO2/95% air. All the reagents were purchased from Sigma-Aldrich (St. Louis, MO), if not otherwise specified.

NCI-H1299 (lung) = experiment: Cell-based cytotoxicity assay (ATPlite), NCI-H1299; conditions: Homo sapiens, NCI-H1299, 72 h, NA = not active (IC50 greater than 100 µM), read-out: IC50 Values (µM ± SEM)
Excerpt: as §1

HCT15 (colon) = experiment: Cell-based cytotoxicity assay (ATPlite), HCT15; conditions: Homo sapiens, HCT-15, HCT15, 72 h, NA = not active (IC50 greater than 100 µM), read-out: IC50 Values (µM ± SEM)
Excerpt: as §1

NEK7 = NEK7 (Homo sapiens, UniProt Q8TDX7); experiment: Off-chip Mobility Shift Assay (MSA) profiling, NEK7; assay type: biochemical; conditions: ATP approximating Km
Chain of NEK7 (Q8TDX7 whole entry): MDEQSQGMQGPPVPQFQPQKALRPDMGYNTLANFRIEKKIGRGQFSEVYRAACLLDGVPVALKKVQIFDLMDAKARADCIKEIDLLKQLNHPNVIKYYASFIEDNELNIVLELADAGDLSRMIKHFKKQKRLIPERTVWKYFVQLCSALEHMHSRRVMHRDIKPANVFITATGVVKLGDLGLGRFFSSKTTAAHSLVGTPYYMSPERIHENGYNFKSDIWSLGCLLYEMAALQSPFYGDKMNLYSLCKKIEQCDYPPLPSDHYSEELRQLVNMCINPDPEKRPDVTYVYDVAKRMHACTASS
Description: (§2) Therefore, we decided to evaluate the selectivity of compound 8 against a panel of NEK kinases at 10 µM, using the technique of Off-chip Mobility shift assay. This concentration was chosen according to the guidelines proposed by Knight and Shokat, since the probability of off-target effects increases dramatically above 10 µM[36]. Furthermore, ATP concentration was set to approximate the Km,ATP for each kinase, so that the resulting selectivity profile directly reflects the intrinsic affinities of the inhibitor[37]. […] A major consequence of this substitution may be the redistribution of surface charges at the flexible activation loop resulting in an altered electrostatic potential and ability of NEK6 kinase to interact with other molecules.
(§3) The inhibitory activity of compounds 8 and 21 on NEK6 was also verified with MSA technique (Off-chip Mobility shift assay) (CARNA Biosciences Study ID: CBS170097, CARNA Biosciences, Kobe). […] PKR Inhibitor was used as positive control. For profiling study against NEK kinases (i.e. NEK1, NEK2, NEK6, NEK7, NEK9) (CARNA Biosciences Study ID: CBS170098), 8 was tested at 10 μM and ATP concentration approximating Km for each kinase. Assay condition for kinases are available on “Kinase profiling book” downloading by www.carnabio.com (https://www.carnabio.com/output/pdf/ProfilingProfilingBook_en.pdf).

MDA-MB-231 (breast) = experiment: Cell-based cytotoxicity assay (ATPlite), MDA-MB-231; conditions: Homo sapiens, MDA-MB-231, 72 h, NA = not active (IC50 greater than 100 µM), read-out: IC50 Values (µM ± SEM)
Excerpt: as §1

NEK6 = target: T1, NEK6 (Homo sapiens, UniProt Q9HC98); experiment: Off-chip Mobility Shift Assay (MSA), NEK6; assay type: biochemical
T1 construct: purchased Carna 05-130
T1 sequence (Q9HC98 whole entry): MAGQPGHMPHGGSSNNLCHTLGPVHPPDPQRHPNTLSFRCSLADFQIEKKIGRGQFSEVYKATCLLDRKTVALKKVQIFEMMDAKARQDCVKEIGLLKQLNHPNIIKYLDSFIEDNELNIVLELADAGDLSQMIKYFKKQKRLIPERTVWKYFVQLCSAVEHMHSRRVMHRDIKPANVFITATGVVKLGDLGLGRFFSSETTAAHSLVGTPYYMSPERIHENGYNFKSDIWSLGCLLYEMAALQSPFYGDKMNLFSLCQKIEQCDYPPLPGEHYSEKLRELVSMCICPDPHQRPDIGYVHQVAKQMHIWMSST
Description: as §2, §3

NEK2 = target: T2, NEK2 (Homo sapiens, UniProt P51955); experiment: Off-chip Mobility Shift Assay (MSA) profiling, NEK2; assay type: biochemical; conditions: ATP approximating Km
T2 sequence (P51955 1-445): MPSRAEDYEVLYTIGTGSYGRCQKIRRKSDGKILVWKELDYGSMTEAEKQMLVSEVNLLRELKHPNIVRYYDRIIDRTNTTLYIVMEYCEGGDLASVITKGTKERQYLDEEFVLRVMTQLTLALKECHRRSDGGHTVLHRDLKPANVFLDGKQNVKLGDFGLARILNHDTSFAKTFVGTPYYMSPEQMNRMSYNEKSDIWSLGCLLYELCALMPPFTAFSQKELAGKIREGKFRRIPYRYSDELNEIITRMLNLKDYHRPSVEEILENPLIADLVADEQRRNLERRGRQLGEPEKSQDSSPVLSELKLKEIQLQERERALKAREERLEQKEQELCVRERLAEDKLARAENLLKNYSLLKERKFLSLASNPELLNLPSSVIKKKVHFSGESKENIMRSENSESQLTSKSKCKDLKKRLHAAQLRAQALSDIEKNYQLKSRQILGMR
Description: as §2, §3

In the case of CC1=C(C#N)C(O)=NC(=O)/C1=C\c1ccc(-c2ccccc2)o1 [Compound 8, (5Z)-2-hydroxy-4-methyl-6-oxo-5-[(5-phenylfuran-2-yl)methylidene]-5,6-dihydropyridine-3-carbonitrile], the IC50 (PEO1 (ovary)) is reported as 44 ± 6.5 µM, the IC50 (NCI-H1299 (lung)) is reported as 87.8 ± 10 µM and the IC50 (HCT15 (colon)) is reported as 98.5 ± 0.5 µM. The inhibition at 10 µM (NEK7) was ≤ 0%, the IC50 (MDA-MB-231 (breast)) was 65 ± 15 µM and the inhibition at 10 µM (NEK6; 10 µM, ATP approximating Km) was 42.5%. The IC50 (NEK6; CARNA Biosciences Study CBS170097, ATP 75 µM) was 13.8 µM and the inhibition at 10 µM (NEK2) was ≤ 0%.
